Results reported in US20030236306A1, “Stabilized formulations of alpha adrenergic receptor antagonists and the uses thereof” (priority 2002, published 2003).

Experiments:
[1] = Narrow-range pH-stability profiling at 60° C.; assay type: physicochemical
Experimental: (§1) The drug is monitored at a detection wavelength of 232 nm.
All samples were stored in the dark.
The phosphate buffers were prepared as previously described. […] Measurement of sample pH was done after HPLC analysis.
In order to precisely define the most favorable pH, a stronger stressing condition was needed to generate a greater extent of degradation in the lower pH region. For this study, the incubation condition was shifted from 40° C. to 60° C. […] Since the extent of degradation after fourteen (14) days was still less than twenty percent (20%) in most samples, zero-order rate kinetics was used for the degradation curves (concentration versus time). The calculated rate constant was plotted against pH to provide the narrow-range pH-stability profile.

[2] = Effect of buffer anion on stability, pH 3, 60° C.; assay type: physicochemical
Experimental: as §1
Tightly sealed glass vials containing the test solutions were placed in an oven at 40° C. or 60° C. All samples were stored in the dark. Aliquots were removed at designated time points for HPLC analysis and pH measurement.
The test buffers included 50 mM sodium phosphate, 50 mM sodium acetate, 50 mM sodium lactate, 50 mM sodium citrate, and 50 mM sodium succinate buffers at pH 3.
The phosphate and acetate buffers were prepared as described above. The citrate buffer was prepared by adding 9.60 g of citric acid to water, adjusting the pH with 2 N NaOH to pH 3, and bringing the volume to 1 L in a volumetric flask. The lactate buffer was prepared by adding 2.25 g of lactic acid to water, adjusting the pH with 2 N NaOH to pH 3, and bringing the volume to 1L in a volumetric flask. The succinate buffer was prepared by adding 2.95 g succinic acid to water, adjusting the pH with 2 N NaOH to pH 3, and bringing the volume to 1 L in a volumetric flask.
Measurements of sample pH were done after HPLC analysis.

[3] = test system: anesthesia by lignocaine admixed with epinephrine; details: 0.5-1.5 mg, Example 1, Table 1 of the '714 patent; cited from earlier work
[4] = Sodium Phosphate Buffer pH 2.0, 60° C., Day 0
[5] = Sodium Phosphate Buffer pH 2.0, 60° C., Day 2
[6] = Sodium Phosphate Buffer pH 2.0, 60° C., Day 7
[7] = Sodium Phosphate Buffer pH 2.0, 60° C., Day 14
[8] = Sodium Phosphate Buffer pH 2.5, 60° C., Day 0
[9] = Sodium Phosphate Buffer pH 2.5, 60° C., Day 2
[10] = Sodium Phosphate Buffer pH 2.5, 60° C., Day 7
[11] = Sodium Phosphate Buffer pH 2.5, 60° C., Day 14
[12] = Sodium Phosphate Buffer pH 3.0, 60° C., Day 0
[13] = Sodium Phosphate Buffer pH 3.0, 60° C., Day 2
[14] = Sodium Phosphate Buffer pH 3.0, 60° C., Day 7
[15] = Sodium Phosphate Buffer pH 3.0, 60° C., Day 14
[16] = Sodium Phosphate Buffer pH 3.4, 60° C., Day 0
[17] = Sodium Phosphate Buffer pH 3.4, 60° C., Day 2
[18] = Sodium Phosphate Buffer pH 3.4, 60° C., Day 7
[19] = Sodium Phosphate Buffer pH 3.4, 60° C., Day 14
[20] = Sodium Phosphate Buffer pH 4.0, 60° C., Day 0
[21] = Sodium Phosphate Buffer pH 4.0, 60° C., Day 2
[22] = Sodium Phosphate Buffer pH 4.0, 60° C., Day 7
[23] = Sodium Phosphate Buffer pH 4.0, 60° C., Day 14
[24] = 50 mM Acetate (sodium salt) pH 3.0, 60° C., Day 0
[25] = 50 mM Acetate (sodium salt) pH 3.0, 60° C., Day 2
[26] = 50 mM Acetate (sodium salt) pH 3.0, 60° C., Day 7
[27] = 50 mM Acetate (sodium salt) pH 3.0, 60° C., Day 14
[28] = 50 mM Phosphate (sodium salt) pH 3.0, 60° C., Day 0
[29] = 50 mM Phosphate (sodium salt) pH 3.0, 60° C., Day 2
[30] = 50 mM Phosphate (sodium salt) pH 3.0, 60° C., Day 7
[31] = 50 mM Phosphate (sodium salt) pH 3.0, 60° C., Day 14

Cc1ccc(N(CC2=NCCN2)c2cccc(O)c2)cc1 [Phentolamine, phentolamine]
pH at which most stable ([1]; 50 mM sodium phosphate, 60° C., FIG. 2): 3.5 | Phentolamine Concentration [1, 4]: 98 µg/mL | Phentolamine Purity [1, 4]: 100 % peak area | Phentolamine Concentration [1, 5]: 98 µg/mL | Phentolamine Purity [1, 5]: 99 % peak area | Phentolamine Concentration [1, 6]: 93 µg/mL | Phentolamine Purity [1, 6]: 96 % peak area | Phentolamine Concentration [1, 7]: 81 µg/mL | Phentolamine Purity [1, 7]: 92 % peak area | Phentolamine Concentration [1, 8]: 99 µg/mL | Phentolamine Purity [1, 8]: 99 % peak area | Phentolamine Concentration [1, 9]: 96 µg/mL | Phentolamine Purity [1, 9]: 97 % peak area | Phentolamine Concentration [1, 10]: 78 µg/mL | Phentolamine Purity [1, 10]: 92 % peak area | Phentolamine Concentration [1, 11]: 79 µg/mL | Phentolamine Purity [1, 11]: 86 % peak area | Phentolamine Concentration [1, 12]: 96 µg/mL | Phentolamine Purity [1, 12]: 99 % peak area | Phentolamine Concentration [1, 13]: 93 µg/mL | Phentolamine Purity [1, 13]: 97 % peak area | Phentolamine Concentration [1, 14]: 91 µg/mL | Phentolamine Purity [1, 14]: 95 % peak area | Phentolamine Concentration [1, 15]: 84 µg/mL | Phentolamine Purity [1, 15]: 91 % peak area | Phentolamine Concentration [1, 16]: 97 µg/mL | Phentolamine Purity [1, 16]: 99 % peak area | Phentolamine Concentration [1, 17]: 95 µg/mL | Phentolamine Purity [1, 17]: 98 % peak area | Phentolamine Concentration [1, 18]: 96 µg/mL | Phentolamine Purity [1, 18]: 97 % peak area | Phentolamine Concentration [1, 19]: 91 µg/mL | Phentolamine Purity [1, 19]: 94 % peak area | Phentolamine Concentration [1, 20]: 97 µg/mL | Phentolamine Purity [1, 20]: 99 % peak area | Phentolamine Concentration [1, 21]: 95 µg/mL | Phentolamine Purity [1, 21]: 98 % peak area | Phentolamine Concentration [1, 22]: 94 µg/mL | Phentolamine Purity [1, 22]: 97 % peak area | Phentolamine Concentration [1, 23]: 89 µg/mL | Phentolamine Purity [1, 23]: 96 % peak area | Phentolamine Concentration [2, 24]: 96 µg/mL | Phentolamine Purity [2, 24]: 100 % peak area | Phentolamine Concentration [2, 25]: 95 µg/mL | Phentolamine Purity [2, 25]: 98 % peak area | Phentolamine Concentration [2, 26]: 94 µg/mL | Phentolamine Purity [2, 26]: 97 % peak area | Phentolamine Concentration [2, 27]: 89 µg/mL | Phentolamine Purity [2, 27]: 96 % peak area | Phentolamine Concentration ([2]; 50 mM Citrate (sodium salt) pH 3.0, 60° C., Day 0): 93 µg/mL | Phentolamine Concentration ([2]; 50 mM Citrate (sodium salt) pH 3.0, 60° C., Day 2): 87 µg/mL | Phentolamine Concentration ([2]; 50 mM Citrate (sodium salt) pH 3.0, 60° C., Day 7): 73 µg/mL | Phentolamine Concentration ([2]; 50 mM Citrate (sodium salt) pH 3.0, 60° C., Day 14): 62 µg/mL | Phentolamine Concentration ([2]; 50 mM Lactate (sodium salt) pH 3.0, 60° C., Day 0): 97 µg/mL | Phentolamine Concentration ([2]; 50 mM Lactate (sodium salt) pH 3.0, 60° C., Day 2): 94 µg/mL | Phentolamine Concentration ([2]; 50 mM Lactate (sodium salt) pH 3.0, 60° C., Day 7): 91 µg/mL | Phentolamine Concentration ([2]; 50 mM Lactate (sodium salt) pH 3.0, 60° C., Day 14): 83 µg/mL | Phentolamine Concentration [2, 28]: 96 µg/mL | Phentolamine Purity [2, 28]: 99 % peak area | Phentolamine Concentration [2, 29]: 93 µg/mL | Phentolamine Purity [2, 29]: 97 % peak area | Phentolamine Concentration [2, 30]: 91 µg/mL | Phentolamine Purity [2, 30]: 95 % peak area | Phentolamine Concentration [2, 31]: 84 µg/mL | Phentolamine Purity [2, 31]: 91 % peak area | Phentolamine Concentration ([2]; 50 mM Succinate (sodium salt) pH 3.0, 60° C., Day 0): 96 µg/mL | Phentolamine Concentration ([2]; 50 mM Succinate (sodium salt) pH 3.0, 60° C., Day 2): 88 µg/mL | Phentolamine Concentration ([2]; 50 mM Succinate (sodium salt) pH 3.0, 60° C., Day 7): 74 µg/mL | Phentolamine Concentration ([2]; 50 mM Succinate (sodium salt) pH 3.0, 60° C., Day 14): 64 µg/mL | rank of buffer preference based on amount of phentolamine recovered at the end of the study ([2]; pH 3, 60° C., 14 days): sodium acetate>no buffer (water with pH adjusted to pH 3)>sodium phosphate>sodium lactate>sodium succinate>sodium citrate | duration of anesthesia [3]: reduction in the duration of anesthesia with increasing amounts
